Measured values taken from ChEMBL document CHEMBL1143682, “Investigation into the P3 binding domain of m-calpain using photoswitchable diazo- and triazene-dipeptide aldehydes: new anticataract agents” (J Med Chem, 2007).
pIC50: −log10 of the molar value.

Assay: Inhibition of sheep M-calpain by fluorescence based assay
Design: species or system Ovis aries

Compound | pIC50
CC(C)[C@H](NC(=O)c1cccc(/N=N/c2ccccc2)c1)C(=O)N[C@H](C=O)Cc1ccccc1 | 6.77
CC(C)[C@H](NC(=O)c1ccc(/N=N/c2ccccc2)cc1)C(=O)N[C@H](C=O)Cc1ccccc1 | 7.46
